For the assay, the system named is Wnt reporter (TCF/LEF1 promoter) in HEK STF293 cells. The experiment in a line: HEK STF293 Wnt reporter (luciferase) assay. Format: cell-based. The following applies: Homo sapiens, STF/293, Wnt3a-conditioned media, Steady Glo normalized to Cell Titer. As for the experimental part: Screening with STF293 and SW480STF. HEK STF293 cells are seeded at approximately 25,000-30,000 cells/well in a 96-well (100 uL volume). On the first day, Wnt3a-conditioned media (1:1) will be added along with diluted compounds (1:100). For example, for 100 ul of STF293 cells, 100 ul of Wnt3a-conditioned media and 2 ul of drug will be added to each well. The final concentrations should therefore be 100 μM, 30 μM, 10 μM, 3 μM, 1 μM, 300 nM, 100 nM, 30 nM, 10 nM, 3 nM, 1 nM, and 0.3 nM. On the second day, the media is removed and 75 ul of Passive Lysis Buffer (Promega) is added to each well. The plate will be shaken at 130 rpm for 15 minutes. For the Steady Glo assay, 45 ul of the lysis is removed and added to a white 96-well plate containing 45 uL/well of Steady Glo solution (Promega). For the Cell Titer assay, 25 ul of the lysis is transferred to a white 96-well plate containing 25 ul/well of Cell Titer solution (Promega). Both Steady Glo and Cell Titer assays will be read with a luminescence plate reader. When determining EC50, the Steady Glo values will be divided by the Cell Titer values to normalize for cell number and the resulting values plotted in a dose-response curve.
Experimental. All compounds were tested using the human cell line HEK STF293. This cell line carries a Wnt reporter (TCF/LEF1 promoter), which drives expression of the firefly luciferase protein. The level of Wnt activity is directly correlated with the level of luciferase activity (determined using a simple assay). Compounds that inhibit Wnt signaling by reducing luciferase activity in these two cell lines are further tested biochemically.
Compounds were prepared as 10 mM stocks for each compound in DMSO. Dilutions were prepared in a 96-well plate in DMSO. The stock dilutions are as follows: 10 mM, 1 mM, […]. Plates were sealed and stored at −20 C.
HEK STF293 cells were seeded at approximately 25,000-30,000 cells/well in a 96-well (100 uL volume). On the first day, Wnt3a-conditioned media (1:1) were added along with diluted compounds (1:100). For example, for 100 ul of STF293 cells, 100 ul of Wnt3a-conditioned media and 2 ul of drug was added to each well. The final concentrations should therefore be 100 uM, 10 uM, 1 uM, 100 nM, 10 nM, and 1 nM. On the second day, the media is removed and 75 ul of Passive Lysis Buffer (Promega) is added to each well. The plate is shaken at 130 rpm for 15 minutes. For the Steady Glo assay, 45 ul of the lysis is removed and added to a white 96-well plate containing 45 uL/well of Steady Glo solution (Promega). For the Cell Titer assay, 25 ul of the lysis is transferred to a white 96-well plate containing 25 ul/well of Cell Titer solution (Promega). Both Steady Glo and Cell Titer assays were read with a luminescence plate reader. When determining EC50, the Steady Glo values were divided by the Cell Titer values to normalize for cell number.
Consider `Cc1nn(Cc2ccccc2)c(C)c1NC(=O)c1cc2n(n1)C(C(F)(F)F)CC(c1ccccc1)N2` (stereo not drawn), for which the EC50 was ≤ 0.1 µM. The result for `Cc1nn(Cc2ccc(F)cc2)c(C)c1NC(=O)c1cc(-c2ccc(F)cc2)on1` reads > 0.1 µM; that for `Cc1nn(Cc2ccccc2)c(C)c1NC(=O)c1cc(-c2ccc(Br)cc2)on1`, ≤ 0.1 µM; that for `COc1ccccc1-c1cc(C(=O)Nc2c(C)nn(Cc3ccc(F)cc3)c2C)no1`, > 0.1 µM.

As to `O=C(Nc1ccc(F)cc1)c1ccc(S(=O)(=O)N2CCc3ccccc32)cc1`, the EC50 is > 0.1 µM. The result for `Cc1ccc(NS(=O)(=O)c2ccc(NC(=O)c3n[nH]c4c3CCc3ccccc3-4)cc2)cc1` reads > 0.1 µM. The result for `Cc1ccc(C)c(NS(=O)(=O)c2ccc(NC(=O)c3n[nH]c4c3CCc3ccccc3-4)cc2)c1` reads > 0.1 µM. For `COc1cc2nc(NC(=O)c3ccc(S(=O)(=O)N(C)c4ccccc4)cc3)sc2cc1OC`, the EC50 was > 0.1 µM. In the case of `COc1cc2nc(NC(=O)c3ccc(S(=O)(=O)N4CCc5ccccc54)cc3)sc2cc1OC` it was > 0.1 µM; in that of `O=C(Nc1nc(-c2ccccn2)cs1)c1ccc(S(=O)(=O)N2CCCc3ccccc32)cc1`, ≤ 0.1 µM. The result for `Cc1sc(NC(=O)c2ccc(S(=O)(=O)N3CCc4ccccc43)cc2)nc1-c1ccccc1` reads > 0.1 µM; that for `NC(=O)c1ccccc1NC(=O)c1ccc(S(=O)(=O)Nc2ccccc2)cc1`, > 0.1 µM.

For orientation: EC50 means the midpoint of the concentration-response curve.

The values are drawn from patent publication US11834446B2, “Methods and compositions useful in treating cancer and reducing Wnt mediated effects in a cell” (StemSynergy Therapeutics, Inc., priority 2009, dated 2023).
